Source: publication PMC6471591, “Preparation of Sesquiterpene Lactone Derivatives: Cytotoxic Activity and Selectivity of Action” (Molecules, 2019)
Like-named read-outs stand apart in the source and are kept apart here.

Legend:
[1] = tested on: human solid tumor cell lines (A549, HBL-100, HeLa, SW1573, T-47D, WiDr); assay: Antiproliferative SRB assay, whole panel of tumor cell lines; type: cell-based; conditions: for antiproliferative activity in words: tumor cell line panel, compared to cumanin (1); for GI50: Homo sapiens, all tested tumor cell lines, SRB, 48 h, read-out: GI50 values, range over all tested cell lines
Method: (§1) In vitro antiproliferative activity was evaluated using the protocol of the National Cancer Institute (NCI) after 48 h of drug exposure using the sulforhodamine B (SRB) assay. […] We cannot discard that increasing lipophilicity may well result in an increase in cytotoxicity in vitro.
(§2) The following human solid tumor cell lines were used in this study: HBL-100 (breast), HeLa (cervix), SW1573 (non-small cell lung), T-47D (breast), A549 (lung), and WiDr (colon). Cells were maintained in 25 cm^2 culture flasks in RPMI 1640 supplemented with 5% heat-inactivated fetal calf serum and 2 mM L-glutamine in a 37 °C, 5% CO2, 95% humidified air incubator. Exponentially growing cells were trypsinized and resuspended in antibiotic containing medium (100 units penicillin G and 0.1 mg of streptomycin per mL). Single-cell suspensions displaying >97% viability by trypan blue dye exclusion test were subsequently counted. After counting, dilutions were made to give the appropriate cell densities for inoculation onto 96-well microtiter plates. Cells were inoculated in a volume of 100 μL per well at densities of 20,000 (WiDr), 15,000 (T-47D and A549), and 10,000 (HeLa, SW1573, and HBL-100) cells per well, based on their doubling times.
(§3) Chemosensitivity tests were performed using the SRB assay of the NCI with slight modifications. Briefly, pure compounds were initially dissolved in DMSO at 400 times the desired final maximum test concentration. Control cells were exposed to an equivalent concentration of DMSO (0.25% v/v, negative control). Each agent was tested in triplicate at different dilutions in the range 1–100 μM. Drug treatment started on day 1 after plating. Drug incubation periods were 48 h, after which cells were precipitated with 25 μL of ice-cold 50% (w/v) trichloroacetic acid and fixed for 60 min at 4 °C. Then, the SRB assay was performed. Optical density (OD) of each well was measured at 492 nm, using BioTek’s PowerWave XS Absorbance Microplate Reader (Highland Park, Winooski, VT, USA). Values were corrected for background OD from wells containing only culture medium. The percentage growth (PG) was calculated with respect to untreated control cells (C) at each level of drug concentrations based on the difference in OD at the start time (T0) and at the end of drug exposure (T), according to NCI formulas. Therefore, if T is greater than or equal to T0, the calculation is 100 × [(T–T0)/(C–T0)]. If T is lower than T0, denoting cell death, the calculation is 100 × [(T–T0)/(T0)]. The effect is defined as the growth percentage, where 50% growth inhibition (GI50) represents the concentration at which PG is +50. Based on these calculations, a PG value of 0 corresponds to the number of cells present at the beginning of drug exposure, while negative PG values denote net cell death.

A549 cells [2] = assay: Antiproliferative SRB assay (NCI protocol), 48 h; type: cell-based, human; conditions: splenocyte CC50 versus A549 GI50
SW1573 cells = assay: Antiproliferative SRB assay (NCI protocol), 48 h; type: cell-based, human; conditions: for GI50: Homo sapiens, SW1573 (non-small cell lung), SRB, 48 h drug exposure, read-out: 50% growth inhibition (GI50) ± SD, SW1573; for Selectivity Index, SW1573: splenocyte CC50 versus SW1573 GI50
Method: as §1, §2, §3

T47-D cells = assay: Antiproliferative SRB assay (NCI protocol), 48 h; type: cell-based, human; conditions: for GI50: Homo sapiens, T47D, T47-D (breast), SRB, 48 h drug exposure, read-out: 50% growth inhibition (GI50) ± SD, T47-D; for Selectivity Index, T47-D: splenocyte CC50 versus T47-D GI50
Method: as §1, §2, §3

WiDr cells = assay: Antiproliferative SRB assay (NCI protocol), 48 h; type: cell-based, human; conditions: for GI50: Homo sapiens, WiDr (colon), SRB, 48 h drug exposure, read-out: 50% growth inhibition (GI50) ± SD, WiDr; for Selectivity Index, WiDr: splenocyte CC50 versus WiDr GI50
Method: as §1, §2, §3

HeLa cells [3] = assay: Antiproliferative SRB assay (NCI protocol), 48 h; type: cell-based, human; conditions: splenocyte CC50 versus HeLa GI50
A549 cells [4] = assay: Antiproliferative SRB assay (NCI protocol), 48 h; type: cell-based; conditions: Homo sapiens; A549 (lung), SRB, 48 h drug exposure; read-out: 50% growth inhibition (GI50) ± SD, A549
Method: as §1, §2, §3

HBL100 cells [5] = assay: Antiproliferative SRB assay (NCI protocol), 48 h; type: cell-based; conditions: Homo sapiens, HBL-100; HBL100 (breast), SRB, 48 h drug exposure; read-out: 50% growth inhibition (GI50) ± SD, HBL100
Method: as §1, §2, §3

HeLa cells [6] = assay: Antiproliferative SRB assay (NCI protocol), 48 h; type: cell-based; conditions: Homo sapiens; HeLa (cervix), SRB, 48 h drug exposure; read-out: 50% growth inhibition (GI50) ± SD, HeLa
Method: as §1, §2, §3

HBL100 cells [7] = assay: Antiproliferative SRB assay (NCI protocol), 48 h; type: cell-based, human; conditions: splenocyte CC50 versus HBL100 GI50
[8] = Cytotoxicity on primary cell culture (propidium iodide, flow cytometry); type: cell-based
Method: The cytotoxicity of the sesquiterpene lactones and its derivatives was evaluated using mouse splenocytes. […] Cumanin derivatives (4–11) have shown CC50 values and selectivity indexes higher than natural compound 1. […] The incorporation of two triazole groups in cumanin (1) reduced cytotoxicity on normal cells and improved selectivity against tumor cell lines.
In a 96-well plate, spleen cells from Balb/c mouse (1.5 × 10^5) were incubated with different drug dilutions (200, 100, 50, 10, and 5 μg/mL) in RPMI medium containing 10% fetal calf serum. After 48 h of incubation at 37 °C (5% CO2), cells were harvested, washed once with PBS, and stained with 2.5 μg/mL propidium iodide (PI) for 5 min at room temperature. Subsequently, cell death was assessed by flow cytometry using a BD FACSaria II cytometer. Cells incubated only with a drug vehicle were used as a 100% viability control and death percentage was calculated according to the following formula: Death(%)=[1−(%PI^−cells)drug−treated/(%PI^−cells)100% viability control]×100.
Then the concentration capable of causing cell death in 50% of splenocytes (CC50) was determined using a non-linear regression approach.

For C#CCOC1CC2C(C)CC3OC(=O)C(=C)C3CC2(C)C1OCC#C (stereo not shown) [Compound 9], the “antiproliferative activity in words” value [1] was “moderate activity”, the “Selectivity Index, A549” value (A549 cells [2]) was 5.5 and the GI50 (SW1573 cells) was 20 µM. The “Selectivity Index, SW1573” value (SW1573 cells) was 4.7, the GI50 (T47-D cells) was 24 µM and the “Selectivity Index, T47-D” value (T47-D cells) was 3.9. For the same compound, the GI50 (WiDr cells) was 2.1 µM, the “Selectivity Index, WiDr” value (WiDr cells) was 44.5 and the “Selectivity Index, HeLa” value (HeLa cells [3]) was 3.9. The GI50 (A549 cells [4]) was 17 µM, the GI50 (HBL100 cells [5]) was 19 µM and the GI50 (HeLa cells [6]) was 24 µM. For the same compound, the “Selectivity Index, HBL100” value (HBL100 cells [7]) was 4.9.
In the case of C=C1C(=O)OC2CC(C)C3CC(OCc4cn(Cc5ccccc5)nn4)C(O)C3(C)CC12 (stereo not shown) [Compound 10], the “antiproliferative activity in words” value [1] is reported as “moderate activity”, the “Selectivity Index, A549” value (A549 cells [2]) is reported as 6.3 and the GI50 (SW1573 cells) is reported as 32 µM. For the same compound, the “Selectivity Index, SW1573” value (SW1573 cells) was 3.5, the GI50 (T47-D cells) was 37 µM and the “Selectivity Index, T47-D” value (T47-D cells) was 3.1. The GI50 (WiDr cells) was 30 µM, the “Selectivity Index, WiDr” value (WiDr cells) was 3.8 and the “Selectivity Index, HeLa” value (HeLa cells [3]) was 3.5. For the same compound, the CC50 at 48 h ([8]; primary mouse splenocytes (spleen cells), Balb/c mouse spleen cells, 48 h incubation, PI staining, read-out: CC50 ± SD, splenocytes (concentration that causes 50% cell death)) was 114 µM, the GI50 (A549 cells [4]) was 18 µM and the GI50 (HBL100 cells [5]) was 29 µM. The GI50 (HeLa cells [6]) was 32 µM and the “Selectivity Index, HBL100” value (HBL100 cells [7]) was 3.9.
For C=C1C(=O)O[C@@H]2C[C@@H](C)[C@@H]3C=CC(=O)[C@@]3(C)[C@@H](O[Si](C)(C)C)[C@H]12 [Compound 13], the GI50 [1] was 0.15 to 0.59 µM, the “Selectivity Index, A549” value (A549 cells [2]) was 1.9 and the GI50 (SW1573 cells) was 0.28 µM. The “Selectivity Index, SW1573” value (SW1573 cells) was 3.9, the GI50 (T47-D cells) was 0.29 µM and the “Selectivity Index, T47-D” value (T47-D cells) was 3.8. The GI50 (WiDr cells) was 0.56 µM, the “Selectivity Index, WiDr” value (WiDr cells) was 2.0 and the “Selectivity Index, HeLa” value (HeLa cells [3]) was 5.8. For the same compound, the CC50 at 48 h ([8]; Balb/c, mouse) was 1.1 µM, the GI50 (A549 cells [4]) was 0.59 µM and the GI50 (HBL100 cells [5]) was 0.36 µM. For the same compound, the GI50 (HeLa cells [6]) was 0.19 µM and the “Selectivity Index, HBL100” value (HBL100 cells [7]) was 3.0.
With C=C1C(=O)O[C@@H]2C[C@@H](C)[C@@H]3C=CC(=O)[C@@]3(C)[C@@H](O[Si](C)(C)C(C)C)[C@H]12 [Compound 14] the GI50 [1] was 0.15 to 0.59 µM, the “Selectivity Index, A549” value (A549 cells [2]) was 5.0 and the GI50 (SW1573 cells) was 0.19 µM. The “Selectivity Index, SW1573” value (SW1573 cells) was 7.4, the GI50 (T47-D cells) was 0.36 µM and the “Selectivity Index, T47-D” value (T47-D cells) was 3.9. The GI50 (WiDr cells) was 0.26 µM, the “Selectivity Index, WiDr” value (WiDr cells) was 5.4 and the “Selectivity Index, HeLa” value (HeLa cells [3]) was 9.3. The CC50 at 48 h ([8]; Balb/c, mouse) was 1.4 µM, the GI50 (A549 cells [4]) was 0.28 µM and the GI50 (HBL100 cells [5]) was 0.2 µM. For the same compound, the GI50 (HeLa cells [6]) was 0.15 µM and the “Selectivity Index, HBL100” value (HBL100 cells [7]) was 7.0.
